Source: paper PMC4118284 (Leukemia, 2012)
“And” between values parts separate entries of the source, which are not always exact repeats. Equal values may be shown once. Read-outs that look alike come from different tables or passages of the source. One block for each compound: values may come before it.

Assays:
FLT3 = details: cited from earlier work
[1] = Plasma concentrations of midostaurin and metabolites
clinical = details: human, plasma, intravenous, cycle 1, day 1; for AUC(0-t): AUC (0–24 h); for concentration at 24 h: C24 h
[2] = Concomitant (days 1-7 and 15-21), 50 mg BID, Induction cycle 1, day 1
[3] = Concomitant, 50 mg BID, First consolidation cycle, day 15.5
[4] = Concomitant, 50 mg BID, Induction cycle 1, Day 1 (+ 2 h)
[5] = Concomitant, 50 mg BID, Induction cycle 1, Day 1 (+ 4 h)
[6] = Concomitant, 50 mg BID, Induction cycle 1, day 2
[7] = Concomitant, 50 mg BID, Induction cycle 1, day 4
[8] = Concomitant, 50 mg BID, Induction cycle 1, day 15 (+ 2 h)
[9] = Concomitant, 50 mg BID, Induction cycle 1, day 15 (+ 4 h)
[10] = Sequential (days 8-21), 50 mg BID, Induction cycle 1, day 8
[11] = Sequential, 50 mg BID, First consolidation cycle, day 1.5
[12] = Sequential, 50 mg BID, First consolidation cycle, day 15.5
[13] = Sequential, 50 mg BID, First consolidation cycle, day 29.5
[14] = Sequential, 50 mg BID, Induction cycle 1, day 8 (+ 2 h)
[15] = Sequential, 50 mg BID, Induction cycle 1, day 8 (+ 4 h)
[16] = Sequential, 50 mg BID, Induction cycle 1, day 9
[17] = Sequential, 50 mg BID, Induction cycle 1, day 15
[18] = Sequential, 50 mg BID, Induction cycle 1, day 22.5
[19] = Sequential, 50 mg BID, Induction cycle 1, day 29.5
[20] = Concomitant midostaurin n = 13, cycle 1, day 1
[21] = Sequential midostaurin n = 13, cycle 1, day 1
[22] = Mean ± SD, Concomitant midostaurin n = 13
[23] = Mean ± SD, Sequential midostaurin n = 13
[24] = Median, Concomitant midostaurin n = 13
[25] = Median, Sequential midostaurin n = 13

Pharmacokinetic interaction with midostaurin (data not shown): No interaction
Compound: Nc1ccn([C@@H]2O[C@H](CO)[C@@H](O)[C@@H]2O)c(=O)n1 [cytarabine]

Plasma concentration, Max [1, 2]: LLOQ
Plasma concentration, Median [1, 2]: LLOQ
Plasma concentration, Min [1, 2]: LLOQ
Plasma concentration, Max [1, 3]: 810 ng/mL
Plasma concentration, Min [1, 3]: 810 ng/mL
Plasma concentration, individual values (n = 2; merged Median/Min/Max cell) ([1]; Concomitant, 50 mg BID, First consolidation cycle, day 29.5): 809 ng/mL and 2990 ng/mL
Plasma concentration, Max [1, 4]: 812 ng/mL
Plasma concentration, Median [1, 4]: 170 ng/mL
Plasma concentration, Min [1, 4]: 52.9 ng/mL
Plasma concentration, Max [1, 5]: 209 ng/mL
Plasma concentration, Median [1, 5]: 137 ng/mL
Plasma concentration, Min [1, 5]: 115 ng/mL
Plasma concentration, Max [1, 6]: 460 ng/mL
Plasma concentration, Median [1, 6]: 361 ng/mL
Plasma concentration, Min [1, 6]: 228 ng/mL
Plasma concentration, Max [1, 7]: 1090 ng/mL
Plasma concentration, Median [1, 7]: 832 ng/mL
Plasma concentration, Min [1, 7]: 570 ng/mL
Plasma concentration, Max [1, 8]: 1920 ng/mL
Plasma concentration, Median [1, 8]: 1170 ng/mL
Plasma concentration, Min [1, 8]: 814 ng/mL
Plasma concentration, Max [1, 9]: 1860 ng/mL
Plasma concentration, Median [1, 9]: 1465 ng/mL
Plasma concentration, Min [1, 9]: 893 ng/mL
Plasma concentration, Max [1, 10]: LLOQ
Plasma concentration, Median [1, 10]: LLOQ
Plasma concentration, Min [1, 10]: LLOQ
Plasma concentration, Max [1, 11]: 3110 ng/mL
Plasma concentration, Median [1, 11]: 1740 ng/mL
Plasma concentration, Min [1, 11]: 835 ng/mL
Plasma concentration, Max [1, 12]: 4210 ng/mL
Plasma concentration, Median [1, 12]: 2685 ng/mL
Plasma concentration, Min [1, 12]: 1490 ng/mL
Plasma concentration, Max [1, 13]: 5320 ng/mL
Plasma concentration, Median [1, 13]: 2230 ng/mL
Plasma concentration, Min [1, 13]: 1440 ng/mL
Plasma concentration, Max [1, 14]: 194 ng/mL
Plasma concentration, Median [1, 14]: 70.8 ng/mL
Plasma concentration, Min [1, 14]: 35.9 ng/mL
Plasma concentration, Max [1, 15]: 207 ng/mL
Plasma concentration, Median [1, 15]: 113 ng/mL
Plasma concentration, Min [1, 15]: 58.2 ng/mL
Plasma concentration, Max [1, 16]: 414 ng/mL
Plasma concentration, Median [1, 16]: 293 ng/mL
Plasma concentration, Min [1, 16]: 145 ng/mL
Plasma concentration, Max [1, 17]: 1670 ng/mL
Plasma concentration, Median [1, 17]: 1460 ng/mL
Plasma concentration, Min [1, 17]: 903 ng/mL
Plasma concentration, Max [1, 18]: 3540 ng/mL
Plasma concentration, Median [1, 18]: 2800 ng/mL
Plasma concentration, Min [1, 18]: 1630 ng/mL
Plasma concentration, Max [1, 19]: 3330 ng/mL
Plasma concentration, Median [1, 19]: 1955 ng/mL
Plasma concentration, Min [1, 19]: 1350 ng/mL
Half-life (qualitative) ([1]; midostaurin 50 mg twice daily, stable levels between dosing treatment phases): long half-life
Compound: CO[C@@H]1[C@H](N(C)C(=O)c2ccccc2)C[C@H]2O[C@]1(C)n1c3ccccc3c3c4c(c5c6ccccc6n2c5c31)C(=O)N[C@H]4O [CGP52421]
Inhibition of FLT3 in vitro (FLT3): capable of inhibiting FLT3 in vitro

CL, Mean ± SD [20]: 269 ± 130 L/h/m^2
CL, Median [20]: 283 L/h/m^2
Vz, Mean ± SD [20]: 717 ± 266 L/m^2
Vz, Median [20]: 694 L/m^2
C24 h, Mean ± SD [21]: 0 ± 0 ng/mL
CL, Mean ± SD [21]: 330 ± 226 L/h/m^2
CL, Median [21]: 270 L/h/m^2
Vz, Mean ± SD [21]: 946 ± 696 L/m^2
Vz, Median [21]: 775 L/m^2
C24 h, Median (Sequential midostaurin n = 13, cycle 1, day 1, LLOQ is 5 ng/mL): LLOQ
Effect of midostaurin on clearance (midostaurin 50 mg twice daily): does not seem to be affected
C24 h, Concomitant/sequential midostaurin (ratio, cycle 1, day 1): 17.4/LLOQ
AUC(0-t) (clinical; [22]): 373 ng·h/mL
AUC(0-t) (clinical; [23]): 267 ng·h/mL
AUC(0-t) (clinical; [24]): 189 ng·h/mL
AUC(0-t) (clinical; [25]): 159 ng·h/mL
concentration at 24 h (clinical; [22]): 17.4 ng/mL
concentration at 24 h (clinical; [24]): 17.4 ng/mL
Cmax (clinical; [22]): 98 ng/mL
Cmax (clinical; [23]): 229 ng/mL
Cmax (clinical; [24]): 89 ng/mL
Cmax (clinical; [25]): 76 ng/mL
Tmax (clinical; [22]): 30 min
Tmax (clinical; [23]): 36 min
Tmax (clinical; [24]): 30 min
Tmax (clinical; [25]): 30 min
Compound: COc1cccc2c1C(=O)c1c(O)c3c(c(O)c1C2=O)C[C@@](O)(C(C)=O)C[C@@H]3O[C@H]1C[C@H](N)[C@H](O)[C@H](C)O1 [daunorubicin]

Compound: CN(C(=O)c1ccccc1)[C@@H]1C[C@H]2O[C@@](C)([C@@H]1O)n1c3ccccc3c3c4c(c5c6ccccc6n2c5c31)C(=O)NC4 [CGP62221]
Inhibition of FLT3 in vitro (FLT3): capable of inhibiting FLT3 in vitro
